Assay results from patent publication US12054457B2, “Polymorphs of (2S,5R)-5-(2-chlorophenyl)-1-(2′-methoxy-[1,1′-biphenyl]-4-carbonyl)pyrrolidine-2-carboxylic acid and preparation processes thereof” (EPICS THERAPEUTICS, priority 2022, dated 2024).
Counter-ions that a name gives are not always drawn. Values belong to the compound of their own block, whether it stands above or below them.

Columns and labels:
Format in all cases: physicochemical
[1] = Hygroscopicity: weight gain on storage at fixed relative humidity
Source text: The previously described solid forms of (2S,5R)-5-(2-chlorophenyl)-1-(2′-methoxy-[1,1′-biphenyl]-4-carbonyl)pyrrolidine-2-carboxylic acid, i.e. the amorphous free acid and the corresponding Na salt, both disclosed in WO2021/250174, are hygroscopic.

[2] = Competitive slurry test between form I and form II in isopropyl alcohol
Procedure: A competitive slurry test between form I and form II of compound (1) was carried out at 10° C., 20° C., 25° C., 30° C. and 40° C. in isopropyl alcohol.
Method. Suspensions of compound (1) under form II, in isopropyl alcohol, were first prepared and equilibrated for 30 min at each of the temperatures to be studied. About 800 μL of the saturated solutions were then sampled, filtered through a 0.2 μm HPTFE filter, and added into a vial containing 50 mg of form I and 50 mg of form II, equipped with a magnetic rod. After 10 seconds, a first sample of the solid phase is taken and analyzed by XRPD to identify the solid phase(s) present. Additional sampling are also performed until only 1 solid phase remains.

[3] = Thermal gravimetric analysis (TGA); settings: temperature range 10° C.-200° C., 10° C./min, nitrogen purge
Procedure: The thermal gravimetric analysis (TGA) experiments were performed on a Mettler Toledo TGA/DSC3+ apparatus. The samples (about 10-30 mg) were placed in a 100 μL aluminum sample pan and crimped with a punctured cover. […]

[4] = Competitive slurry test between form I and form II in n-heptane; settings: 10° C., 20° C., 25° C., 30° C. and 40° C.
Procedure: A competitive slurry test between form I and form II of compound (1) was carried out at 10° C., 20° C., 25° C., 30° C. and 40° C. in n-heptane.
Method. About 1 mL of n-heptane was added into vials containing 40 mg of form I and 40 mg of form II, equipped with a magnetic rod. After 10 seconds, a first sample of the solid phase is taken and analyzed by XRPD to identify the solid phase(s) present. Additional sampling are also performed until only 1 solid phase remains.

[5] = Hygroscopicity by dynamic vapor sorption (DVS)
Procedure: The determination of the hygroscopicity of crystalline forms I and II was also evaluated by dynamic vapor sorption (DVS).
The analyses were performed on a Surface Measurements System DVS Intrinsic. The samples were placed in an open aluminum pan. The analyses were performed at 25° C. Relative humidity (RH) was scanned between 0% RH and 95% RH, with 10% RH steps (40-0-95-0-95). The stability criterion was a variation in mass lower than 0.002% on a 5 min. window, with a minimum step time of 10 min and a maximum of 100 min.

[6] = Cross-seeding tests in water and n-heptane; settings: 25° C., form II suspension seeded with form I
Procedure: Cross-seeding tests were carried out in water and n-heptane.
Method. Saturated solutions of form II were prepared at 25° C. in water and in n-heptane. The suspensions were then seeded with form I after 45 minutes, and kept under stirring at 25° C. The solid phases in suspensions were then periodically controlled by XRPD.

[7] = Thermodynamic stability over time

weight gain ([1]; 40% relative humidity, after 2 days): 3 wt % | weight gain ([1]; 70-75% relative humidity, room temperature, after 14 h): 8 wt % | hygroscopicity (in words) ([1]; previously described solid forms): hygroscopic
SMILES: COc1ccccc1-c1ccc(C(=O)N2[C@@H](c3ccccc3Cl)CC[C@H]2C(=O)O)cc1 [amorphous free acid, (2S,5R)-5-(2-chlorophenyl)-1-(2′-methoxy-[1,1′-biphenyl]-4-carbonyl)pyrrolidine-2-carboxylic acid]

weight loss (TGA) ([3]; listed as crystalline form II): −0.2% | solid phase conversion (XRPD) [4]: conversion of form II into form I | maximum weight gain at 95% RH ([5]; DVS, 25° C., first sorption stage (0% RH to 95% RH), listed as crystalline form II): +0.4%
SMILES: COc1ccccc1-c1ccc(C(=O)N2[C@@H](c3ccccc3Cl)CC[C@H]2C(=O)O)cc1 [form II, (2S,5R)-5-(2-chlorophenyl)-1-(2′-methoxy-[1,1′-biphenyl]-4-carbonyl)pyrrolidine-2-carboxylic acid]
solid phase present in suspension (XRPD) ([2]; 10-40° C., first sampling after 10 seconds): not visible anymore in the suspensions since the first sampling

weight gain ([1]; 40% relative humidity, after 14 h): 7 wt % | weight gain ([1]; 70% relative humidity, 22° C., after 14 h): 20 wt %
SMILES: COc1ccccc1-c1ccc(C(=O)N2[C@@H](c3ccccc3Cl)CC[C@H]2C(=O)O)cc1 [Na salt, (2S,5R)-5-(2-chlorophenyl)-1-(2′-methoxy-[1,1′-biphenyl]-4-carbonyl)pyrrolidine-2-carboxylic acid]

weight gain ([1]; 80% relative humidity, 25° C., after 10 days): 0.09 wt % | relative stability of the forms ([2]; 10° C., 20° C., 25° C., 30° C. and 40° C.): more stable than form II | relative stability of the forms [6]: greater stability of form I vs. form II | weight loss (TGA) ([3]; listed as crystalline form I): −0.14% | time for which the form is thermodynamically stable [7]: at least 6 months | hygroscopicity (conclusion in words) ([5]; DVS and humidity exposure): non-hygroscopic | weight loss on first desorption stage ([5]; DVS, 25° C., 40% RH to 0% RH): −0.1% | weight gain at the end of the step at 70% RH ([5]; DVS, 25° C., first sorption stage (0% RH to 95% RH)): +0.1% | maximum weight gain at 95% RH ([5]; DVS, 25° C., first sorption stage (0% RH to 95% RH), listed as crystalline form I): +0.7%
SMILES: COc1ccccc1-c1ccc(C(=O)N2[C@@H](c3ccccc3Cl)CC[C@H]2C(=O)O)cc1 [form I, (2S,5R)-5-(2-chlorophenyl)-1-(2′-methoxy-[1,1′-biphenyl]-4-carbonyl)pyrrolidine-2-carboxylic acid]
